Measured values from US11834424B2, “Compounds useful as chaperone-mediated autophagy modulators” (ALBERT EINSTEIN COLLEGE OF MEDICINE, priority 2018, dated 2023).
Like-named read-outs stand apart in the source and are kept apart here.

Test: Pharmacokinetics (plasma and brain levels) in ICR (CD-1) mice
Format: in vivo
Details: male, mouse; for AUC(0-inf): read-out: AUCINF_obs; for MRT inf: read-out: MRTINF_obs
Description: ICR (CD-1) male mice were fasted at least three horns and water was available ad libitum before the study. Animals were housed in a controlled environment, target conditions: temperature 18 to 29° C., relative humidity 30 to 70%. Temperature and relative humidity was monitored daily. An electronic time controlled lighting system was used to provide a 12 h light/12 h dark cycle. 3 mice for each indicated time point. ICR (CD-1) mice were administered CA77 at 1 mg/kg i.v. and 30 mg/kg p.o. or CA77.1 at 1 mg/kg i.v. (FIG. 2A) and 10 mg/kg p.o. (FIG. 2B). Three (3) mice were included in each dosage and time group. Mice were sacrificed and plasma and brains were obtained at 0.083, 0.25, 0.50, 1.0, 2.0, 4.0, 8.0, and 24.0 hours after administration and drug concentration determined using LC-MS/MS. Brains were removed, homogenized with a tissue homogenizer in cold 5% w/v BSA in phosphate buffer saline (PBS). A 100 microliter aliquots of brain samples were dispensed in to glass culture tubes and mixed with ethyl acetate (800 μl), vortexed, and centrifuged. The organic layer was transferred to a fresh culture tube, dried under nitrogen, and reconstituted in mobile phase for quantitation. Pharmacokinetic parameters were determined by standard methods using Phoenix WinNonlin 6.3 software.
Tables 3A and 3B provide the concentrations of CA77 in ICR (CD-1) mouse plasma (3A) and mouse brain (3B) following i.v. administration of 1 mg/kg CA77. Table 3C provides the brain/plasma ratio of CA77 following i.v. administration of 1 mg/kg CA77. Shaded cells indicate data not included in statistics due to aberrant value. BLQ=Below Limit of Quantitation.
Tables 5A and 5B provide the concentrations of CA77.1 in ICR (CD-1) mouse plasma (5A) and mouse brain (5B) following i.v. administration of 1 mg/kg CA77.1. Table 5C provides the brain/plasma ratio of CA77.1 following i.v. administration of 1 mg/kg CA77.1. The plasma and brain pharmacokinetic parameters for CA77.1 are provided in Table 6. *—cells contain data not present in the statistics.

[1] = ICR (CD-1), brain, iv, 1 mg/kg, i.v. 1 mg/kg, mouse brain, read-out: Conc. in brain, Mean
[2] = ICR (CD-1), brain, iv, 1 mg/kg, i.v. 1 mg/kg, mouse brain, read-out: Conc. in brain, individual animal
[3] = ICR (CD-1), brain/plasma, iv, 1 mg/kg, i.v. 1 mg/kg, read-out: Brain/Plasma ratio, Mean
[4] = ICR (CD-1), brain/plasma, iv, 1 mg/kg, i.v. 1 mg/kg, read-out: Brain/Plasma ratio, individual animal
[5] = ICR (CD-1), plasma, iv, 1 mg/kg, i.v. 1 mg/kg, mouse plasma, read-out: Conc. in plasma, Mean
[6] = ICR (CD-1), plasma, iv, 1 mg/kg, i.v. 1 mg/kg, mouse plasma, read-out: Conc. in plasma, individual animal
[7] = plasma, iv, i.v. 1 mg/kg, ICR (CD-1) mice
[8] = plasma, po, p.o. 10 mg/kg, ICR (CD-1) mice

Question: What does the source list for `CC(=O)Nc1ccc(-c2cnc3cc(Cl)ccc3n2)cc1` [CA77.1, N-(4-(6-chloroquinoxalin-2-yl)phenyl)acetamide]?
Answer: concentration at 8 h [1]: 4 ng/g; concentration at 8 h [2]: 4.92 ng/g; concentration at 24 h [1]: 0 ng/g; concentration at 24 h [2]: 0 ng/g; Kp at 0.083 h [3]: 5.64; Kp at 0.083 h [4]: 5.81; Kp at 0.25 h [3]: 6.19; Kp at 0.25 h [4]: 6.54; Kp at 0.5 h (ICR (CD-1), brain/plasma, iv, 1 mg/kg, i.v. 1 mg/kg, 0.50 h, read-out: Brain/Plasma ratio, Mean): 3.92; Kp at 1 h [3]: 7.52; Kp at 1 h [4]: 5.44; Kp at 2 h (ICR (CD-1), brain/plasma, iv, 1 mg/kg, i.v. 1 mg/kg, 2.00 h, read-out: Brain/Plasma ratio, Mean): 6.22; Kp at 4 h (ICR (CD-1), brain/plasma, iv, 1 mg/kg, i.v. 1 mg/kg, 4.00 h, read-out: Brain/Plasma ratio, Mean): 4; Kp at 8 h [3]: 2.23; Kp at 8 h [4]: 1.79; Kp at 24 h [3]: 0; Kp at 24 h [4]: 0; concentration at 0.083 h [5]: 190 ng/mL; concentration at 0.083 h [6]: 177 ng/mL; concentration at 0.25 h [5]: 129 ng/mL; concentration at 0.25 h [6]: 132 ng/mL; concentration at 0.5 h (ICR (CD-1), plasma, iv, 1 mg/kg, i.v. 1 mg/kg, mouse plasma, 0.50 h, read-out: Conc. in plasma, Mean): 276 ng/mL; concentration at 1 h [5]: 91 ng/mL; concentration at 1 h [6]: 110 ng/mL; concentration at 2 h (ICR (CD-1), plasma, iv, 1 mg/kg, i.v. 1 mg/kg, mouse plasma, 2.00 h, read-out: Conc. in plasma, Mean): 46 ng/mL; concentration at 4 h (ICR (CD-1), plasma, iv, 1 mg/kg, i.v. 1 mg/kg, mouse plasma, 4.00 h, read-out: Conc. in plasma, Mean): 6 ng/mL; concentration at 8 h [5]: 2 ng/mL; concentration at 8 h [6]: 2.74 ng/mL; concentration at 24 h [5]: 1 ng/mL; concentration at 24 h [6]: 0.556 ng/mL; AUC(0-t) [7]: 314 ng·h/mL; half-life [7]: 1.39 h; AUC(0-inf) [7]: 315 ng·h/mL; MRT inf [7]: 2 h; bioavailability (plasma, oral, p.o. 10 mg/kg vs i.v. 1 mg/kg, ICR (CD-1) mice): 46.4%; AUC(0-t) [8]: 1460 ng·h/mL; half-life [8]: 2.78 h; AUC(0-inf) [8]: 1460 ng·h/mL; Cmax (plasma, po, p.o. 10 mg/kg, ICR (CD-1) mice, read-out: Cmax): 464 ng/mL; MRT inf [8]: 3 h; Tmax (plasma, po, p.o. 10 mg/kg, ICR (CD-1) mice, read-out: Tmax): 1 h
